Test results taken from ChEMBL document CHEMBL5055656, “Synthesis of novel indole-thiazolidinone hybrid structures as promising scaffold with anticancer potential” (Bioorg Med Chem, 2021).
Active and inactive are the calls of the source. The calls are words filed in the database; no cut-off is given here.

Key:
BALB/3T3 [1] = assay: Induction of DNA damage in mouse BALB/3T3 cells assessed as increase in olive tail moment incubated at 55 uM measured after 24 hrs by alkaline Comet assay; format: cell-based; details: balb/3t3, 24 h
[2] = Selectivity index, ratio of GI50 for human HaCaT cells to GI50 for human HeLa cells; format: toxicity; details: HaCaT cells versus HeLa cells, read-out: RatioGI50
HepG2 [3] = assay: Cytotoxicity against human HepG2 cells assessed as cell growth inhibition measured after 24 hrs by LDH assay; format: functional
BALB/3T3 [4] = assay: (§1) Cytotoxicity against mouse BALB/3T3 cells assessed as cell growth inhibition measured after 72 hrs by LDH assay; format: cell-based; details: balb/3t3, 72 h
[5] = as §1; format: cell-based; details: BALB/3T3 cells
HepG2 [6] = assay: Cytotoxicity against human HepG2 cells assessed as cell growth inhibition measured after 72 hrs by neutral red uptake assay; format: functional
[7] = Selectivity index, ratio of GI50 for mouse BALA/3T3 cells to GI50 for human HepG2 cells measured after 24 hrs by LDH assay; format: toxicity; details: BALA/3T3 cells versus HepG2 cells, read-out: Selectivity Index
THP-1 = assay: Cytotoxicity against human THP-1 cells assessed as cell growth inhibition measured after 72 hrs by MTT assay; format: functional
MCF7 [8] = assay: Induction of DNA damage in human MCF7 cells assessed as increase in tail length incubated at 0.7 uM measured after 24 hrs by alkaline Comet assay; format: functional, cell-based
HepG2 [9] = assay: Cytotoxicity against human HepG2 cells assessed as cell growth inhibition measured after 24 hrs by neutral red uptake assay; format: functional
[10] = Selectivity index, ratio of GI50 for human HaCaT cells to GI50 for human HepG2 cells; format: toxicity; details: HaCaT cells versus HepG2 cells, read-out: RatioGI50
[11] = Selectivity index, ratio of GI50 for human HaCaT cells to GI50 for human MCF7 cells; format: toxicity; details: HaCaT cells versus MCF7 cells, read-out: RatioGI50
BALB/3T3 [12] = assay: (§2) Cytotoxicity against mouse BALB/3T3 cells assessed as cell growth inhibition measured after 48 hrs by LDH assay; format: cell-based; details: balb/3t3, 48 h
[13] = as §2; format: cell-based; details: BALB/3T3 cells
MCF7 [14] = assay: Induction of apoptosis in human MCF7 cells assessed as activation of cleaved PARP1 expression at 0.7 uM incubated for 24 hrs by Western blot analysis; format: functional, cell-based
HepG2 [15] = assay: Cytotoxicity against human HepG2 cells assessed as cell growth inhibition measured after 48 hrs by LDH assay; format: functional
HCT-116 [16] = assay: Cytotoxicity against human HCT-116 cells assessed as cell growth inhibition measured after 72 hrs by MTT assay; format: functional
Salmon testes DNA = assay: Displacement of methyl green from salmon sperm DNA at 10 uM measured after 2 hrs by fluorescence plate reader method relative to control; format: cell-based; details: Salmo salar, Spermatozoa
[17] = Selectivity index, ratio of GI50 for human HaCaT cells to GI50 for human THP-1 cells
HepG2 [18] = assay: Cytotoxicity against human HepG2 cells assessed as cell growth inhibition measured after 48 hrs by neutral red uptake assay; format: functional
MCF7 [19] = assay: Induction of cell cycle arrest in human MCF7 cells assessed as decrease in phospho-Rb expression at 45 uM measured after 24 hrs by Western blot analysis; format: functional, cell-based
BALB/3T3 [20] = assay: (§3) Cytotoxicity against mouse BALB/3T3 cells assessed as cell growth inhibition measured after 24 hrs by coomassie brilliant blue staining based total cellular protein assay; details: balb/3t3, 24 h
[21] = as §3; details: BALB/3T3 cells
HepG2 [22] = assay: Cytotoxicity against human HepG2 cells assessed as cell growth inhibition measured after 72 hrs by coomassie brilliant blue staining based total cellular protein assay; format: functional
HepG2 [23] = assay: Cytotoxicity against human HepG2 cells assessed as cell growth inhibition measured after 48 hrs by coomassie brilliant blue staining based total cellular protein assay; format: functional
[24] = Selectivity index, ratio of GI50 for human HaCaT cells to GI50 for human WM793 cells
HepG2 [25] = assay: Induction of apoptosis in human HepG2 cells assessed as activation of cleaved caspase 3 expression at 0.7 uM incubated for 24 hrs by Western blot analysis; format: functional, cell-based
BALB/3T3 [26] = assay: (§4) Cytotoxicity against mouse BALB/3T3 cells assessed as cell growth inhibition measured after 48 hrs by MTT assay; format: cell-based; details: balb/3t3, 48 h
[27] = as §4; format: cell-based; details: BALB/3T3 cells
HepG2 [28] = assay: Cytotoxicity against human HepG2 cells assessed as cell growth inhibition measured after 48 hrs by MTT assay; format: functional
[29] = Selectivity index, ratio of GI50 for human HaCaT mouse BALA/3T3 cells to GI50 for human A549 cells; format: toxicity; details: read-out: RatioGI50
WM793 = assay: Cytotoxicity against human WM793 cells assessed as cell growth inhibition measured after 72 hrs by MTT assay; format: functional
HepG2 [30] = assay: Induction of apoptosis in human HepG2 cells assessed as increase in Bax expression at 45 uM after 24 hrs by Western blot analysis; format: functional, cell-based
HepG2 [31] = assay: Cytotoxicity against human HepG2 cells assessed as cell growth inhibition measured after 72 hrs by LDH assay; format: functional
HCT-116 [32] = assay: Induction of apoptosis in human HCT-116 cells assessed as decrease in Cdk2 expression at 45 uM after 24 hrs by Western blot analysis; format: functional, cell-based
BALB/3T3 [33] = assay: (§5) Cytotoxicity against mouse BALB/3T3 cells assessed as cell growth inhibition measured after 72 hrs by coomassie brilliant blue staining based total cellular protein assay; details: balb/3t3, 72 h
[34] = as §5; details: BALB/3T3 cells
HepG2 [35] = assay: Cytotoxicity against human HepG2 cells assessed as cell growth inhibition measured after 72 hrs by MTT assay; format: functional
[36] = Selectivity index, ratio of GI50 for mouse BALA/3T3 cells to GI50 for human HepG2 cells measured after 72 hrs by LDH assay; format: toxicity; details: BALA/3T3 cells versus HepG2 cells, read-out: Selectivity Index
[37] = biological target: Mitogen-activated protein kinase; ERK1/ERK2 (Homo sapiens) (UniProt P27361+P28482); assay: Inhibition of ERK1/2 phosphorylation in human HepG2 cells at 45 uM after 24 hrs by Western blotting analysis; format: cell-based
[38] = Selectivity index, ratio of GI50 for mouse BALA/3T3 cells to GI50 for human WM793 cells
[39] = Selectivity index, ratio of GI50 for mouse BALA/3T3 cells to GI50 for human HepG2 cells; format: toxicity; details: BALA/3T3 cells versus HepG2 cells, read-out: RatioGI50
HepG2 [40] = assay: Induction of cell cycle arrest in human HepG2 cells assessed as effect on phospho-Chk2 expression at 45 uM measured after 24 hrs by Western blot analysis; format: functional, cell-based

Chain of Mitogen-activated protein kinase; ERK1/ERK2 (Homo sapiens) (P27361 whole entry, looked up): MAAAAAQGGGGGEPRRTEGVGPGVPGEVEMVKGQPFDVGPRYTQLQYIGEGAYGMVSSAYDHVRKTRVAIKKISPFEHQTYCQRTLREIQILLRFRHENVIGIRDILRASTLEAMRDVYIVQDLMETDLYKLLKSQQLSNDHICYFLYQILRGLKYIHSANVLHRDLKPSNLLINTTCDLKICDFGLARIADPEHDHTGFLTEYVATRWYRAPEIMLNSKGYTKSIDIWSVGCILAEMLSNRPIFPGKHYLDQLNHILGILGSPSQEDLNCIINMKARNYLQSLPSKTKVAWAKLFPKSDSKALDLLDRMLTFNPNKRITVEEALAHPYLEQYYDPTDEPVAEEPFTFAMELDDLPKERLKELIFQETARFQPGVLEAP
Chain of Mitogen-activated protein kinase; ERK1/ERK2 (Homo sapiens) (P28482 whole entry, looked up): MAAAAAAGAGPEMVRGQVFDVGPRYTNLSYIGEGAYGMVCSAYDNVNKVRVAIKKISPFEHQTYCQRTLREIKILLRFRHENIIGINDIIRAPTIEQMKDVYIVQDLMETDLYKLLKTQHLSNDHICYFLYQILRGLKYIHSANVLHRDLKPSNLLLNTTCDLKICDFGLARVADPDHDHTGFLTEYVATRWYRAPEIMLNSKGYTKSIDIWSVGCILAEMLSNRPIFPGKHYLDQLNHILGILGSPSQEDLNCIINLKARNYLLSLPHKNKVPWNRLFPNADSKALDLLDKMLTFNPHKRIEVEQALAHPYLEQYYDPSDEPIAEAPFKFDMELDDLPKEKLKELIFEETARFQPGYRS

Work on `COC(=O)c1[nH]c2ccc(F)cc2c1/C=C1\SC(=S)NC1=O` yielded an Activity (BALB/3T3 [1]) of 3.5, a selectivity ratio [2] of 1.41 and a GI20 (HepG2 [3]) of less than 0.01 µM. It also gave a GI80 (HepG2 [3]) of 20.3 µM, a GI50 (HepG2 [3]; Homo sapiens, HepG2) of 0.31 µM and a GI20 (BALB/3T3 [4]) of 2.9 µM. It also gave a GI80 (BALB/3T3 [4]) greater than 100 µM, a GI50 at 72 h [5] of 62.8 µM and a GI20 (HepG2 [6]) of less than 0.01 µM. For the same molecule, the GI80 (HepG2 [6]) was 59.6 µM, the GI50 (HepG2 [6]; Homo sapiens, HepG2) was 7.5 µM and the selectivity ratio at 24 h [7] was 323. The GI50 (THP-1) was 62.4 µM, the Activity (MCF7 [8]) was “Active” and the GI20 (HepG2 [9]) was 2.4 µM. For the same molecule, the GI80 (HepG2 [9]) was 80.7 µM, the GI50 (HepG2 [9]; Homo sapiens, HepG2) was 40.1 µM and the selectivity ratio [10] was 5.75. The selectivity ratio [11] was 99.4, the GI20 (BALB/3T3 [12]) was 16.4 µM and the GI80 (BALB/3T3 [12]) was greater than 100 µM. The GI50 at 48 h [13] was 89.7 µM, the Activity (MCF7 [14]) was “Active” and the GI20 (HepG2 [15]) was less than 0.01 µM. It also gave a GI80 (HepG2 [15]) of 16.2 µM, a GI50 (HepG2 [15]; Homo sapiens, HepG2) of 0.06 µM and a GI50 (HCT-116 [16]) of 0.8 µM. For the same molecule, the Activity (Salmon testes DNA) was 5.4%, the RatioGI50 [17] was 1.11 and the GI20 (HepG2 [18]) was 0.06 µM. For the same molecule, the GI80 (HepG2 [18]) was 73.5 µM, the GI50 (HepG2 [18]; Homo sapiens, HepG2) was 24.5 µM and the Activity (MCF7 [19]) was “Active”. For the same molecule, the GI20 (BALB/3T3 [20]) was 6.1 µM, the GI80 (BALB/3T3 [20]) was greater than 100 µM and the GI50 at 24 h [21] was greater than 100 µM. It also gave a GI20 (HepG2 [22]) of 0.08 µM, a GI80 (HepG2 [22]) greater than 100 µM and a GI50 (HepG2 [22]; Homo sapiens, HepG2) of 35.6 µM. For the same molecule, the GI20 (HepG2 [23]) was 1.6 µM, the GI80 (HepG2 [23]) was greater than 100 µM and the GI50 (HepG2 [23]; Homo sapiens, HepG2) was 63.9 µM. The RatioGI50 [24] was 0.87, the Activity (HepG2 [25]) was “Active” and the GI20 (BALB/3T3 [26]) was 0.8 µM. The GI80 (BALB/3T3 [26]) was 84.8 µM, the GI50 at 48 h [27] was 25 µM and the GI20 (HepG2 [28]) was 0.3 µM. The GI80 (HepG2 [28]) was 79.4 µM, the GI50 (HepG2 [28]; Homo sapiens, HepG2) was 16.3 µM and the selectivity ratio [29] was 7.17. The GI50 (WM793) was 80.4 µM, the Activity (HepG2 [30]) was “Active” and the GI20 (HepG2 [31]) was less than 0.01 µM. For the same molecule, the GI80 (HepG2 [31]) was 3.6 µM, the GI50 (HepG2 [31]; Homo sapiens, HepG2) was 0.04 µM and the Activity (HCT-116 [32]) was “Active”. It also gave a GI20 (BALB/3T3 [33]) of 1.6 µM, a GI80 (BALB/3T3 [33]) greater than 100 µM and a GI50 at 72 h [34] of 48.3 µM. The GI50 (HepG2 [35]) was 12.1 µM, the selectivity ratio at 72 h [36] was 1570 and the inhibition [37] was “inactive”. The RatioGI50 [38] was 0.87, the selectivity ratio [39] was 5.75 and the Activity (HepG2 [40]) was “inactive”.
